Earlier results as cited in patent US20260191206A1, “SYNERGISTIC INSECTICIDAL COMPOSITION COMPRISING PHTHALIMIDE COMPOUNDS AND THE USE THEREOF” (COUNCIL OF SCIENTIFIC AND INDUSTRIAL RESEARCH AN INDIAN …, priority 2022, published 2026).

System: trehalose 6-phosphate phosphatase
Details: Cross et al, Sci Rep 9, 16165 (2019)

For O=C1c2ccccc2C(=O)N1Sc1ccccc1 [NPP, N-(Phenylthio) phthalimide], the “inhibition of trehalose 6-phosphate phosphatase” value is listed as “inhibit”.
